Measurements: ChEMBL document CHEMBL1149359, “Total synthesis and biological evaluation of ustiloxin natural products and two analogs” (Bioorg Med Chem Lett, 2006)

Target: Tubulin
Experiment: Inhibition of tubulin polymerization
Type: protein-complex assay, Homo sapiens

Row | Compound | IC50
1 | CC[C@@H](C)[C@@H]1NC(=O)[C@@H](NC)[C@H](O)c2ccc(O)c(c2)O[C@](C)(CC)[C@@H](C(=O)NCC(=O)O)NC1=O | 4800 nM
2 | CC[C@@]1(C)Oc2cc(ccc2OC)[C@@H](O)[C@H](NC)C(=O)N[C@@H](C(C)C)C(=O)N[C@@H]1C(=O)NCC(=O)O | > 40000 nM
3 | CC[C@@]1(C)Oc2cc(c([S+]([O-])C[C@@H](O)C[C@H](N)C(=O)O)cc2O)[C@@H](O)[C@H](NC)C(=O)N[C@@H](C(C)C)C(=O)N[C@@H]1C(=O)NCC(=O)O (some centres not stated) [USTILOXIN A] | 1100 nM
4 | CC[C@@]1(C)Oc2cc(ccc2O)[C@@H](O)[C@H](NC)C(=O)N[C@@H](C(C)C)C(=O)N[C@@H]1C(=O)NCC(=O)O [USTILOXIN D] | 1500 nM
5 | CC[C@@]1(C)Oc2cc(ccc2O)[C@@H](O)[C@H](NC)C(=O)N[C@@H](C)C(=O)N[C@@H]1C(=O)NCC(=O)O [USTILOXIN F] | 8200 nM

System: CA46
Experiment: Cytotoxicity against human CA46 cell line
Type: functional, cell-based

Row | Compound | IC50
6 | CC[C@H](C)[C@@H]([C@@H](CC(=O)N1CCC[C@H]1[C@H](OC)[C@@H](C)C(=O)N[C@@H](Cc1ccccc1)c1nccs1)OC)N(C)C(=O)[C@@H](NC(=O)[C@H](C(C)C)N(C)C)C(C)C [DOLASTATIN-10] | 30 nM
7 | CC[C@@]1(C)Oc2cc(c([S+]([O-])C[C@@H](O)C[C@H](N)C(=O)O)cc2O)[C@@H](O)[C@H](NC)C(=O)N[C@@H](C(C)C)C(=O)N[C@@H]1C(=O)NCC(=O)O (some centres not stated) [USTILOXIN A] | 2500 nM
